In patent publication EP0088849A1, “Levorotatory compounds of N-substituted benzenesulphone amides, process for their preparation and pharmaceutical compositions containing them” (CHOAY S.A., priority 1982, dated 1983):

Test system: chiens Beagle
Assay: Anti-emetic test: apomorphine-induced vomiting in Beagle dogs
Assay type: in vivo
Settings: for Diminution par rapport au témoin (%): percentage decrease in number of vomitings vs control trial, compound about 1 mg/kg intramuscular at time 0, apomorphine about 100 µg/kg subcutaneous 30 minutes later
Experimental: L'étude a été effectuée sur des chiens Beagle provenant de l'élevage du Centre de RecherchesBiologiques de Baugy.
On a tout d'abord effectué un essai témoin, puis six jours après, on a testé notamment les quatre composés mentionnés ci-dessus.
Pendant l'essai témoin, les animaux reçoivent 100 µg/kg d'apomorphine, qui provoque des vomissements,
Lorsqu'on teste les produits conformes à l'invention et le racémique du composé n° 1 135, les animaux reçoivent : • - à l'instant 0, une injection intra-musculaire du composé étudié à raison d'environ 1 mg/kg • - 30 minutes plus tard, une injection sous- cutanée d'apomorphine est effectuée, d'environ 100 µg/kg.
Les résultats donnés ci-après correspondent aux pourcentages de diminution du nombre de vomissements par rapport à l'essai témoin.

Compound | Diminution par rapport au témoin (%) | nombre de vomissements / activité (result in words, same test (about 1 mg/kg i.m., apomorphine about 100 µg/kg s.c. 30 min later))
CCN1CCC[C@H]1CNS(=O)(=O)c1cc(Cl)c(OC)cc1OC [Composé n° 1 138] | 20 | –
CCN1CCCCCC1CNS(=O)(=O)c1cc(Cl)c(N)cc1OC (racemic) [Composé n° 1 149, amino-4 chloro-5 méthoxy-2 N-(N-éthyl méthyl-2 azépinyl) benzènesulfonamide] | 60 | –
CCN1CCCC1CNS(=O)(=O)c1cc(Cl)c(N)cc1OC (racemic) [racémique du lévo-gyre n° 1 135, reference compound] | 10 | –
CCN1CCC[C@H]1CNS(=O)(=O)c1cc(Cl)c(N)cc1OC [Composé n° 1 135] | 50 | beaucoup plus actif que le racémique correspondant
